From US20080171662A1, “Aminocarbonyl-Substituted Thiensulfonylamino(Thio)Carbonyl-Triazolin(Ethi)Ones, Processes For Their Preparation And Their Use” (priority 2004, published 2008) come the findings set out here.

Structures are written as SMILES.

On to `CCOc1nn(C(=O)NS(=O)(=O)c2c(C(=O)N(C)C)csc2C)c(=O)n1C` [Example 1, 5-ethoxy-4-methyl-2-[(4-dimethylaminocarbonyl-2-methylthien-3-yl)sulfonylaminocarbonyl]-2,4-dihydro-3H-1,2,4-triazol-3-one], for which the melting point (usually the temperature, or range, at which the solid turns liquid) was determined as 162 °C.
